From ChEMBL document CHEMBL5236576, “Discovery of a potent M5 antagonist with improved clearance profile. Part 2: Pyrrolidine amide-based antagonists” (Bioorg Med Chem Lett, 2022)
Activity calls are given as the source filed them. The rule behind the calls is not given here.

Key:
[1] = Unbound fraction in rat plasma; assay type: ADME, cell-free
[2] = Intrinsic clearance in rat; assay type: ADME
[3] = Unbound fraction in human plasma; assay type: ADME, cell-free
[4] = biological target: T1, Muscarinic acetylcholine receptor M5 (Homo sapiens) (UniProt P08912); assay: Antagonist activity at human muscarinic M5 receptor expressed in CHO cells assessed as minimal acetylcholine response by calcium mobilisation assay relative to control; assay type: cell-based; parameters: concentration or dose not given beside the values
T1 sequence (whole entry): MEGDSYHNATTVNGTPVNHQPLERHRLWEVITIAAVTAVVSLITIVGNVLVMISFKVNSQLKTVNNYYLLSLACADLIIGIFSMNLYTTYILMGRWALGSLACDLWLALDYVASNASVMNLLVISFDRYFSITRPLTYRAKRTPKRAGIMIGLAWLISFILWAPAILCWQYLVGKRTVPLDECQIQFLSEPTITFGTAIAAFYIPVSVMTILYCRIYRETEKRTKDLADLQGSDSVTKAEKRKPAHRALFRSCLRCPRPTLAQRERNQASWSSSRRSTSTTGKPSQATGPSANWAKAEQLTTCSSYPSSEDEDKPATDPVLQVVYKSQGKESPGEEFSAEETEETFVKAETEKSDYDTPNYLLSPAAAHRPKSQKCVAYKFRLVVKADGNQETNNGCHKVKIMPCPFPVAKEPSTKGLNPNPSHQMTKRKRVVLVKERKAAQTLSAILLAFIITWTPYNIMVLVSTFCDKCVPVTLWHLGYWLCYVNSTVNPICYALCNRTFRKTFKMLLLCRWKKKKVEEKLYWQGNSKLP

[5] = biological target: T2, Muscarinic acetylcholine receptor M5 (Rattus norvegicus, UniProt P08911); assay: Antagonist activity at rat muscarinic M5 receptor expressed in CHO cells in the presence of acetylcholine by calcium mobilisation assay; assay type: cell-based
T2 sequence (P08911 whole entry): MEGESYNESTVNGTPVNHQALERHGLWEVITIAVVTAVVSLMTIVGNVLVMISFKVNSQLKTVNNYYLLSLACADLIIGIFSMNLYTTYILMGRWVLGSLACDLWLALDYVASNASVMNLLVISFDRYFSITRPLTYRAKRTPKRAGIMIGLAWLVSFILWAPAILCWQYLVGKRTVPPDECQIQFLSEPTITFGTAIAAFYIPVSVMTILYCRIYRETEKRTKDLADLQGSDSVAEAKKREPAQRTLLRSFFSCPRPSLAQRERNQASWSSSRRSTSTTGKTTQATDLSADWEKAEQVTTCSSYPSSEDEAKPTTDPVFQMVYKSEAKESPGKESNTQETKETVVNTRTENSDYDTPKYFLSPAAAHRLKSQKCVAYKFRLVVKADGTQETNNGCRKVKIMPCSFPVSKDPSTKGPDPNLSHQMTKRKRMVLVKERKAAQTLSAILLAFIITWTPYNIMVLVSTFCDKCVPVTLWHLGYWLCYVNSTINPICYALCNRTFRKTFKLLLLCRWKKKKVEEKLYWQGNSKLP

[6] = Unbound fraction in rat brain; assay type: ADME, tissue-based
[7] = biological target: T3, Muscarinic acetylcholine receptor M5 (Rattus norvegicus) (UniProt P08911); assay: Antagonist activity at rat muscarinic M5 receptor expressed in CHO cells assessed as minimal acetylcholine response by calcium mobilisation assay relative to control; assay type: cell-based; parameters: scale not given: the % may be the effect or the level left; settings: filed as antagonist
T3 sequence (whole entry): T2 sequence (P08911 whole entry)

[8] = Intrinsic clearance in human; assay type: ADME
[9] = Lipophilicity, logD of the compound at pH 7.4; assay type: physicochemical; settings: buffer
[10] = biological target: T1, Muscarinic acetylcholine receptor M5 (Homo sapiens); assay: Potency index, ratio of VU6027831 IC50 to test compound IC50 for antagonist activity at human M5 muscarinic receptor
[11] = biological target: T4, Muscarinic acetylcholine receptor M5 (Homo sapiens, UniProt P08912); assay: (§1) Antagonist activity at human muscarinic M5 receptor expressed in CHO cells in the presence of acetylcholine by calcium mobilisation assay; assay type: cell-based
T4 sequence (P08912 whole entry): T1 sequence (whole entry)

[12] = biological target: T1, Muscarinic acetylcholine receptor M5 (Homo sapiens); assay: as §1; assay type: cell-based
[13] = biological target: T3, Muscarinic acetylcholine receptor M5 (Rattus norvegicus); assay: Antagonist activity at rat muscarinic M5 receptor assessed as minimal acetylcholine response relative to control; parameters: scale not given: the % may be the effect or the level left; settings: filed as antagonist
[14] = biological target: T5, Muscarinic acetylcholine receptor M1 (Homo sapiens) (UniProt P11229); assay: Antagonist activity at human muscarinic M1 receptor expressed in CHO cells assessed as minimal acetylcholine response by calcium mobilisation assay relative to control; assay type: cell-based; parameters: scale not given: the % may be the effect or the level left; settings: filed as antagonist
T5 sequence (whole entry): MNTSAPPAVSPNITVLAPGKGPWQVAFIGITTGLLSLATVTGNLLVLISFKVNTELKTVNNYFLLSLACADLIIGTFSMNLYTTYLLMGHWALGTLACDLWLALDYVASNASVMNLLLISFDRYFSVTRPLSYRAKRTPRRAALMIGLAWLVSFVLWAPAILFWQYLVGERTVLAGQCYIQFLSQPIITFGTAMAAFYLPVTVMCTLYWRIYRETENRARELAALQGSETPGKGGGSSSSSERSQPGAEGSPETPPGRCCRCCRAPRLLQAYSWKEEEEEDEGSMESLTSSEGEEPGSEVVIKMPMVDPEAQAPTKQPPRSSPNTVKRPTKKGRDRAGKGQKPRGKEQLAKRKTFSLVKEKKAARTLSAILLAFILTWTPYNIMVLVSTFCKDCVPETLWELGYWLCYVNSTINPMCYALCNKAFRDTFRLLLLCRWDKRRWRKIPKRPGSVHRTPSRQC

P-glycoprotein = assay: Efflux ratio of permeability in MDCK-MDR1 cells expressing P-glycoprotein; assay type: ADME, cell-based, Canis lupus familiaris; settings: dog
[15] = biological target: T6, Muscarinic acetylcholine receptor M1 (Homo sapiens, UniProt P11229); assay: Antagonist activity at human muscarinic M1 receptor expressed in CHO cells in the presence of acetylcholine by calcium mobilisation assay; assay type: cell-based
T6 sequence (P11229 whole entry): T5 sequence (whole entry)

[16] = Apparent permeability in MDCK-MDR1 cells; assay type: ADME, cell-based, Canis lupus familiaris; settings: dog
[17] = biological target: T7, Muscarinic acetylcholine receptor M4 (Homo sapiens, UniProt P08173); assay: Antagonist activity at human muscarinic M4 receptor expressed in CHO cells in the presence of acetylcholine by calcium mobilisation assay; assay type: cell-based
T7 sequence (P08173 whole entry): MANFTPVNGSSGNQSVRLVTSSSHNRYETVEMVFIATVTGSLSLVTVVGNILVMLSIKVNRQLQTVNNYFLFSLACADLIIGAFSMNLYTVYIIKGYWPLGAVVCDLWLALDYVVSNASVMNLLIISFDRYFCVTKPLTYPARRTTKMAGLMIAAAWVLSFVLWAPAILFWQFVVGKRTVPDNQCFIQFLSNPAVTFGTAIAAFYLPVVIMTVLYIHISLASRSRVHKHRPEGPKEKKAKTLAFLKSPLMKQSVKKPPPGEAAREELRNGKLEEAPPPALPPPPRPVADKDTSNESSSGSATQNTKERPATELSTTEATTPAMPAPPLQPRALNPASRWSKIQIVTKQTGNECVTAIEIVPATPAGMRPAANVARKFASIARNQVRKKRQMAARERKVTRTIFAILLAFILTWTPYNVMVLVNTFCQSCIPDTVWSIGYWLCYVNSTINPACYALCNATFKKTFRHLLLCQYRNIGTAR

| SMILES | CLint scaled [2] [mL/min/kg] | Activity ([4]; filed as antagonist) [%] | CLint scaled [8] [mL/min/kg] | logD [9] | IC50 [11] [nM] | further results |
| --- | --- | --- | --- | --- | --- | --- |
| O=C(Nc1ccc2scnc2c1)[C@@H]1CCN(S(=O)(=O)c2ccc3ncsc3c2)C1 | 51 | 2 | 33 | 2.04 | – | Fu [1]: 0.01; Fu [3]: 0.12; IC50 [5]: 550 nM; fraction unbound [6]: 0.08; Activity [7]: 4% |
| O=C(Nc1ccc2scnc2c1)[C@@H]1CCN(S(=O)(=O)c2ccc3c(c2)CCC3)C1 | – | 31 | – | 3.54 | – | – |
| O=C(Nc1ccc2scnc2c1)C1CCN(S(=O)(=O)c2ccc3c(c2)CCO3)C1 (stereo unspecified) | 252 | 2 | 72 | – | 47 | Ratio IC50 [10]: 2 |
| O=C(Nc1ccc2scnc2c1)[C@@H]1CCN(S(=O)(=O)c2ccc3ncccc3c2)C1 | 191 | 3 | 42 | 1.99 | – | – |
| O=C(Nc1ccc2scnc2c1)[C@@H]1CCN(S(=O)(=O)c2ccc(Cl)nc2)C1 | – | – | – | 2.41 | – | Activity [12]: inactive |
| C[C@@H]1CN(S(=O)(=O)c2ccc3c(c2)CCO3)C[C@@H]1C(=O)Nc1ccc2scnc2c1 | 769 | 3 | 202 | 2.88 | 35 | – |
| Cc1nn(C)cc1S(=O)(=O)N1CC[C@@H](C(=O)Nc2ccc3scnc3c2)C1 | – | 6 | – | 1.62 | – | – |
| O=C(Nc1ccc2scnc2c1)C1CCN(S(=O)(=O)c2ccc3c(c2)CCO3)CC1 | – | – | – | – | – | Activity [13]: 3% |
| [2H]C1([2H])Oc2ccc(S(=O)(=O)N3CC[C@@H](C(=O)Nc4ccc5scnc5c4)C3)cc2C1([2H])[2H] | 168 | – | 50 | 2.45 | – | – |
| O=C(Nc1ccc2scnc2c1)[C@H]1CN(S(=O)(=O)c2ccc3c(c2)CCO3)C[C@@H]1C(F)(F)F | – | – | – | 3.65 | – | Activity [12]: inactive |
| C[C@H]1CN(S(=O)(=O)c2ccc3c(c2)CCO3)C[C@@H]1C(=O)Nc1ccc2scnc2c1 | 51 | 2 | 5 | 2.94 | 87 | Fu [1]: 0.01; Activity [14]: 8%; efflux ratio (P-glycoprotein): 32.3; IC50 [15]: > 10000 nM; Fu [3]: 0.03; Papp [16]: 1.75 10^-6 cm/s; IC50 [5]: 190 nM; fraction unbound [6]: 0.05; Activity [7]: 2%; IC50 [17]: > 10000 nM |
| O=C(Nc1ccc2scnc2c1)[C@@H]1CCN(S(=O)(=O)c2ccc3c(c2)OCO3)C1 | 267 | 3 | 30 | 2.43 | – | – |
| O=C(Nc1ccc2scnc2c1)[C@@H]1CCN(S(=O)(=O)c2cccnc2)C1 | – | – | – | 1.65 | – | Activity [12]: inactive |
| O=C(Nc1ccc2scnc2c1)C1CN(S(=O)(=O)c2ccc3c(c2)CCO3)C1 | 301 | 2 | 61 | – | – | – |
| Cn1cc(S(=O)(=O)N2CC[C@@H](C(=O)Nc3ccc4scnc4c3)C2)c(C(F)(F)F)n1 | – | – | – | 2.62 | > 10000 | Activity [4]: 59% |
| Cc1ccc(S(=O)(=O)N2CC[C@@H](C(=O)Nc3ccc4scnc4c3)C2)cn1 | – | 41 | – | 1.85 | > 10000 | – |
| O=C(Nc1ccc2scnc2c1)[C@@H]1CCN(S(=O)(=O)c2ccc3c(c2)CCO3)C1 | 356 | 2 | 50.6 | 2.53 | 21 | Activity ([4]; filed as antagonist, tested as the 2H-labelled form): 2% |
| O=C(Nc1ccc2scnc2c1)C12CC1CN(S(=O)(=O)c1ccc3c(c1)CCO3)C2 (racemic) | 396 | 2 | 115 | 2.88 | 270 | – |
| O=C(Nc1ccc2scnc2c1)[C@H]1CCN(S(=O)(=O)c2ccc3c(c2)CCO3)C1 | 201 | 3 | 64 | 2.51 | 440 | – |
